Test results from patent publication US20100242125A1, “METHODS FOR CORRECTING MITOTIC SPINDLE DEFECTS AND OPTIMIZING PREIMPLANTATION EMBRYONIC DEVELOPMENTAL RATES ASSOCIATED WITH SOMATIC CELL NUCLEAR TRANSFER IN ANIMALS” (priority 2003, published 2010).

Test system: NHP oocytes (SCC-intact) and rhesus enucleated cytoplasts
Test: Taxol-induced microtubule recruitment; immunocytochemistry of HSET, NuMA, microtubules and DNA
Type: cell-based, rhesus (nonhuman primate)
Settings: 10 μM paclitaxel
From the text: FIGS. 9A-9C show microtubule patterns (green) observed in rhesus cytoplast after enucleation (FIG. 9A) or following artificial activation at 24 (FIG. 9B) or at 48 hrs (FIG. 9C) post-ionomycin/DMAP. Following enucleation, no assembled cytoplasmic microtubules (FIG. 9A: green) are observed. After activation, abundant disarrayed microtubules (FIG. 9B: green) assemble in the DNA-less cytoplast. Rarely, a microtubule structure resembling a bipolar spindle (FIG. 9C: green) assembles in the cytoplasm. The insets of FIGS. 9A-9C show DNA imaging confirming successful removal of the SCC. […] Second meiotic chromosomes, are blue. FIGS. 9H-9J show a rhesus enucleated cytoplast treated for 30 minutes with 10 μM paclitaxel prior to fixation and detection of DNA (H, blue), microtubules (I, red), and HSET (J, green). The assembled cytoplasmic microtubule bundles are not labeled by HSET antibody. FIGS. 9A-9C and 9E are double-labeled images for microtubules (green) and DNA (blue). FIGS. 9D, 9F, and 9G are triple-labeled images for HSET (green), microtubules (red) and DNA (blue). FIGS. 9H-9J are single-labeled images for DNA (blue), microtubules (red), and HSET (green). Bars represent 10 μm.
FIGS. 10D and 10E show NuMA detection in the somatic cell nuclei of cumulus (FIG. 10D: green) and rhesus fibroblast cells (FIG. 10E: green; red, microtubules). […] NuMA (green) is strongly detected in the decondensed male pronucleus (MPn), but diminished in the unsuccessful fibroblast cell (arrowhead) attached at the oocyte surface. In the upper inset of FIG. 10F, red depicts microtubules while blue depicts DNA. In the lower inset of FIG. 10F, the sperm centrosome organizes a microtubule astral array (arrow) near the decondensed male pronucleus. […] NuMA (green) is found at both poles on the intact metaphase-II spindle (red) with aligned chromosomes (blue) as well as at the base of the condensed sperm head (blue, arrow). However, NuMA (green) is missing from the disorganized multipolar NT spindle microtubules (red) assembling around the scattered somatic cell chromosomes (blue). […] NuMA (green) is detected at the poles in both the NT spindle (lower arrow; red, microtubules; blue, DNA) and the intact second meiotic metaphase spindle (upper arrow; red, microtubules; blue, DNA). […]
Imaging. […] NuMA, HSET (human spleen embryonic tissue and testis), and Eg5 were detected using rabbit polyclonal antibodies as described in Mountain, 147 J. CELL BIOL. […] Primary antibodies were detected using Alexa secondary antibodies (Alexa-546 goat anti-mouse IgG; Alexa-488 goat anti-rabbit IgG; Molecular Probes, Eugene, Oreg.). […] DNA was fluorescently detected with 10 μg/ml Hoechst 33342 (Sigma) and 1 μM Toto-3 (Molecular Probes) added to the penultimate rinse. […]

CC(=O)O[C@H]1C(=O)[C@@]2(C)[C@H]([C@H](OC(=O)c3ccccc3)[C@]3(O)C[C@H](OC(=O)[C@H](O)[C@@H](NC(=O)c4ccccc4)c4ccccc4)C(C)=C1C3(C)C)[C@]1(OC(C)=O)CO[C@@H]1C[C@@H]2O [Paclitaxel]
NuMA localization (SCC-intact mature NHP oocyte, 20 minutes (FIG. 10C)): NuMA localization at disorganized spindle poles
cytoplasmic microtubule assembly (enucleated cytoplast lacking the SCC, 30 minutes (FIG. 9I)): numerous cytoplasmic microtubule bundles assembled in the cytoplasm
HSET detection at cytoplasmic microtubule bundles (enucleated cytoplast lacking the SCC, 30 minutes (FIG. 9J)): without HSET protein detection
HSET protein localization (intact mature oocyte, 30 minutes (FIG. 9G)): enhanced HSET protein only at the second meiotic spindle poles
